{"source": "paper PMC3166797", "about": "(Journal of medicinal chemistry, 2011)", "key": {"CYP1A2": {"target": "T1, CYP1A2 (Homo sapiens, UniProt P05177)", "T1 sequence (P05177 1-516)": "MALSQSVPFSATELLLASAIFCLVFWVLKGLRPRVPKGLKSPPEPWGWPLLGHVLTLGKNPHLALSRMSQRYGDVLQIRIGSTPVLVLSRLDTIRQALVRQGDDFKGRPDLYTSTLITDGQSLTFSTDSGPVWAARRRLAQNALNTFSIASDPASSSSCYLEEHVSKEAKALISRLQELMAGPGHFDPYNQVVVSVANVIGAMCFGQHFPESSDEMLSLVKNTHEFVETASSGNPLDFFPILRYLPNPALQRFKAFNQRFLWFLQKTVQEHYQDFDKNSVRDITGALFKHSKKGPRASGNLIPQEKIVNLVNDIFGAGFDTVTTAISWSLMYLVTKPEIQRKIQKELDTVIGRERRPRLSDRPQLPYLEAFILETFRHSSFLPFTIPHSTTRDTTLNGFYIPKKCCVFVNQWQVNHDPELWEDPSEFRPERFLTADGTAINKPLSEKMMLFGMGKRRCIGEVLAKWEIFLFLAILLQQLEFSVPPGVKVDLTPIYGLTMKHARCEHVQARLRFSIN", "test": "CYP450 enzyme inhibition, CYP1A2"}, "CYP3A4": {"target": "CYP3A4 (Homo sapiens, UniProt P08684)", "sequence (P08684 whole entry)": "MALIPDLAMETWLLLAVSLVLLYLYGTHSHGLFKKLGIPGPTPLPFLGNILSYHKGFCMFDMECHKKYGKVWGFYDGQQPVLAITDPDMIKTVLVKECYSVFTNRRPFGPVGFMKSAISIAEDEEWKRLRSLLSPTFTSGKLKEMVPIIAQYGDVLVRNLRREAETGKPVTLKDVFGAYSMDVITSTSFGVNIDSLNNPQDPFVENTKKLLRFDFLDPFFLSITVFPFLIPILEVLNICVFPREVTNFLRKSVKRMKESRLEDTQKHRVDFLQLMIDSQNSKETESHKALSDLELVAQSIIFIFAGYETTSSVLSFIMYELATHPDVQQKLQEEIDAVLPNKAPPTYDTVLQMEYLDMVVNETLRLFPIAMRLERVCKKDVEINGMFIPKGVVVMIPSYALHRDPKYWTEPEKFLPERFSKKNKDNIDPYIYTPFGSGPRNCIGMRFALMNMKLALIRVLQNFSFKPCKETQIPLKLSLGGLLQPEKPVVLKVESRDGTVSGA", "test": "CYP450 enzyme inhibition, CYP3A4"}, "microsomal stability": {"test": "microsomal stability", "conditions": "for CLint scaled at 1 µM: rat, microsomes; for Rat Clint: microsomal intrinsic clearance in vitro"}, "rat mGlu4": {"target": "rat mGlu4 (Rattus norvegicus, UniProt P31423)", "sequence (P31423 33-912)": "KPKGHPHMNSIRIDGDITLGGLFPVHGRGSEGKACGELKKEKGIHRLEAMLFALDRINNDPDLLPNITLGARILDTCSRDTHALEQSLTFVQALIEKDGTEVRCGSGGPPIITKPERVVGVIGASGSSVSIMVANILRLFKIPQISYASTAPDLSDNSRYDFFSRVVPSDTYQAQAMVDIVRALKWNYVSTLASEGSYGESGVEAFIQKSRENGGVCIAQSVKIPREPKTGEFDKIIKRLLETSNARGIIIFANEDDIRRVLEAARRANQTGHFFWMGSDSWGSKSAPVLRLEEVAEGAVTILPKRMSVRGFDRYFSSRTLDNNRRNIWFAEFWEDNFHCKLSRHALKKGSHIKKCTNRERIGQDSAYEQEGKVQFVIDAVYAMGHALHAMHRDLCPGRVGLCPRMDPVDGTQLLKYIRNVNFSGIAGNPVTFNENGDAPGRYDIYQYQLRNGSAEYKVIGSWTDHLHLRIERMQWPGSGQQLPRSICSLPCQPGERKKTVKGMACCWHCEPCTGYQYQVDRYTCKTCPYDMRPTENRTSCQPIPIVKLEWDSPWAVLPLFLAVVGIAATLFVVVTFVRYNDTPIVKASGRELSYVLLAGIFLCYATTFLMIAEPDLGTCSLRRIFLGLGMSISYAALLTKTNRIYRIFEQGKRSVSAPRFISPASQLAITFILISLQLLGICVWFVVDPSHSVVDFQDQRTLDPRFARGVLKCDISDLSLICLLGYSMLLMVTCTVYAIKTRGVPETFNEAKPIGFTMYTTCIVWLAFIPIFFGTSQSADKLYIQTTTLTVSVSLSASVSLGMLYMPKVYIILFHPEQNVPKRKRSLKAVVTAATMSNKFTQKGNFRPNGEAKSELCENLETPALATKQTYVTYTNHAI", "test": "thallium flux in HEK cells expressing rat mGlu4 with GIRK channels", "format": "cell-based", "conditions": "maximal PAM response normalized to control PAM 1 (PHCCC); mean ± SEM"}, "CYP2D6": {"target": "CYP2D6 (Homo sapiens, UniProt P10635)", "sequence (P10635 whole entry)": "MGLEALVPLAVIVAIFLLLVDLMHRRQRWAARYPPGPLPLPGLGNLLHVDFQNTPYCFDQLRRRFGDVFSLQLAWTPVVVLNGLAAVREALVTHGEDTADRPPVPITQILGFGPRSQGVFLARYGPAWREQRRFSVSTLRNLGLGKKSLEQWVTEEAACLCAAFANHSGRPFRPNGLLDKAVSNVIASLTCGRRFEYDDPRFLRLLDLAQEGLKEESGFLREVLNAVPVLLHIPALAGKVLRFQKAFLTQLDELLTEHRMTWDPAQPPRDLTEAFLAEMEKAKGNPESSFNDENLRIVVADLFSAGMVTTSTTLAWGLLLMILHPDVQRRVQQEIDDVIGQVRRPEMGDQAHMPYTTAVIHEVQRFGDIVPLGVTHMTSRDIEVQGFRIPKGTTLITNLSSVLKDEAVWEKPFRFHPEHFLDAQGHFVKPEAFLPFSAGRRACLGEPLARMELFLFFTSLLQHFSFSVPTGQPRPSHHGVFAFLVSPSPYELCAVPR", "test": "CYP450 enzyme inhibition, CYP2D6", "conditions": "P450 2D6, CYP2D6 inhibition"}, "CYP2C9": {"target": "CYP2C9 (Homo sapiens, UniProt P11712)", "sequence (P11712 whole entry)": "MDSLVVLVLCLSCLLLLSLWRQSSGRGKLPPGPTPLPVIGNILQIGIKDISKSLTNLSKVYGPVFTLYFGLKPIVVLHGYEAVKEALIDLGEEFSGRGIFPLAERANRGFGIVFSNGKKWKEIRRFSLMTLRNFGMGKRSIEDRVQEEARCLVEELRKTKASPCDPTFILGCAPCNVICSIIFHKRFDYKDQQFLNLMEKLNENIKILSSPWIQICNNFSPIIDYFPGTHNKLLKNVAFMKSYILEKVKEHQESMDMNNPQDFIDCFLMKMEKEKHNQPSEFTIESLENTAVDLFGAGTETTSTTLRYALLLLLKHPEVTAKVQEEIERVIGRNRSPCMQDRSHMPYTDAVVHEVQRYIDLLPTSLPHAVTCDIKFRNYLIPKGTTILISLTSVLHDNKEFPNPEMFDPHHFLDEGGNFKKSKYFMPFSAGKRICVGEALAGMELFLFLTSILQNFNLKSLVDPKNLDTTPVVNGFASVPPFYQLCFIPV", "test": "CYP450 enzyme inhibition, CYP2C9", "conditions": "P450 2C9, CYP2C9 inhibition"}, "human mGlu4": {"target": "human mGlu4 (Homo sapiens, UniProt Q14833)", "sequence (Q14833 33-912)": "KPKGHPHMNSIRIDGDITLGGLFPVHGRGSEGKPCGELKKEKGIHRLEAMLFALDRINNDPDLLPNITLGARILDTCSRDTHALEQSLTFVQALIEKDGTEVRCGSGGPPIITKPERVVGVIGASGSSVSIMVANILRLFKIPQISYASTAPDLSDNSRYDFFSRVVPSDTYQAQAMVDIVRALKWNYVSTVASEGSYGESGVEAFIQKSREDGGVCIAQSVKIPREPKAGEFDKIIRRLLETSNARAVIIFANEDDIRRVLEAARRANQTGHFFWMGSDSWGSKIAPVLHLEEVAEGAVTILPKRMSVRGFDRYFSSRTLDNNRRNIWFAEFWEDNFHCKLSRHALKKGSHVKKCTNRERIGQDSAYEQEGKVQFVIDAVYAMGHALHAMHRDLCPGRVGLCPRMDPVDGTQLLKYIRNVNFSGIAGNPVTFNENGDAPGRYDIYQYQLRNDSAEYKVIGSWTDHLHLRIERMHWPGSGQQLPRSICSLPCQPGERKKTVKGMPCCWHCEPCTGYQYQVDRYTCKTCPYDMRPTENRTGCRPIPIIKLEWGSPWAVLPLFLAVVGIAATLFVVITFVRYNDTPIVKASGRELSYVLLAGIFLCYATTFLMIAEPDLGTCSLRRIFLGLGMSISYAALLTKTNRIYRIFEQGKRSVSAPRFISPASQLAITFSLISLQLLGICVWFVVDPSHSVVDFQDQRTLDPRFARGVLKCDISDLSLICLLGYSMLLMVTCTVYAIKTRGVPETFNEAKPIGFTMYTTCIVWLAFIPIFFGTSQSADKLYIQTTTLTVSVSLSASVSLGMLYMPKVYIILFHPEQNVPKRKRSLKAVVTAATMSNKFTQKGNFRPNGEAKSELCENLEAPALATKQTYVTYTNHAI", "test": "cell-based"}, "[1]": {"conditions": "dosed systemically in a nontoxic vehicle; cited from earlier work"}, "mGlu1": {"system": "mGlu1", "conditions": "cited from earlier work"}, "[2]": {"system": "acute rodent models of Parkinson's disease", "conditions": "icv injection or systemically in a 50% DMSO vehicle; cited from earlier work"}}, "note": "Read-outs that look alike come from different tables or passages of the source.", "data": [{"smiles": "COc1cc(NC(=O)c2ccccn2)ccc1NC(=O)c1ccccc1Cl", "note": "[Compound 9g, N-(4-(2-chlorobenzamido)-3-methoxyphenyl)picolinamide]", "values": [{"measurement": "IC50", "setting": "CYP1A2", "result": "> 30", "unit": "µM"}, {"measurement": "IC50", "setting": "CYP3A4", "result": "> 30", "unit": "µM"}, {"measurement": "CLint scaled at 1 µM", "setting": "microsomal stability", "result": 42.6, "unit": "mL/min/kg"}, {"measurement": "GluMax (%Cmpd 1), rat mGlu4", "setting": "rat mGlu4", "result": 147.0, "unit": "%Cmpd 1"}, {"measurement": "IC50", "setting": "CYP2D6", "result": 12.8, "unit": "µM"}, {"measurement": "IC50", "setting": "CYP2C9", "result": 14.3, "unit": "µM"}]}, {"smiles": "O=C(Nc1ccc(NC(=O)c2ccccc2Cl)c(C(F)(F)F)c1)c1ccccn1", "note": "[Compound 10b]", "values": [{"measurement": "EC50", "setting": "human mGlu4", "result": 0.556, "unit": "µM"}]}, {"smiles": "O=C(Nc1ccc(NC(=O)c2ccc(F)cc2Cl)c(Cl)c1)c1ccccn1", "note": "[Compound 12d]", "values": [{"measurement": "CLint scaled at 1 µM", "setting": "microsomal stability", "result": 54, "unit": "mL/min/kg"}]}, {"smiles": "COc1cc(NC(=O)c2ccccn2)ccc1Cl", "note": "[Compound 3]", "values": [{"measurement": "CNS penetration", "setting": "[1]", "result": "CNS penetrant"}]}, {"smiles": "O=C(Nc1ccc(NC(=O)c2ccccc2Cl)cc1)c1ccccn1", "note": "[Compound 10c]", "values": [{"measurement": "EC50", "setting": "human mGlu4", "result": 3.75, "unit": "µM"}]}, {"smiles": "O=C(Nc1ccccc1)[C@]12C[C@H]1/C(=N\\O)c1ccccc1O2", "note": "(stereo in doubt) [Compound 1, N-phenyl-7-(hydroxyimino)cyclopropa[b]chromen-1a-carboxamide]", "values": [{"measurement": "activity at mGlu1", "setting": "mGlu1", "result": "partial antagonist activity"}, {"measurement": "activity in acute rodent models of Parkinson's disease", "setting": "[2]", "result": "active"}]}, {"smiles": "Cc1ccccc1C(=O)Nc1ccc(NC(=O)c2ccccn2)cc1Cl", "note": "[Compound 12a, N-(3-chloro-4-(2-methylbenzamido)phenyl)picolinamide]", "values": [{"measurement": "IC50", "setting": "CYP1A2", "result": "> 30", "unit": "µM"}, {"measurement": "IC50", "setting": "CYP1A2; human", "result": "> 10", "unit": "µM"}, {"measurement": "IC50", "setting": "CYP3A4", "result": "> 30", "unit": "µM"}, {"measurement": "Rat Clint", "setting": "microsomal stability", "result": "acceptable"}, {"measurement": "CLint scaled at 1 µM", "setting": "microsomal stability", "result": 46.2, "unit": "mL/min/kg"}, {"measurement": "IC50", "setting": "CYP2D6", "result": 12, "unit": "µM"}, {"measurement": "IC50", "setting": "CYP2C9", "result": 14.1, "unit": "µM"}]}, {"smiles": "COc1ccccc1C(=O)n1ccc2cc(NC(=O)c3ccccn3)ccc21", "note": "[Compound 15]", "values": [{"measurement": "Rat Clint", "setting": "microsomal stability", "result": "poor metabolic stability"}, {"measurement": "CLint scaled at 1 µM", "setting": "microsomal stability", "result": 605, "unit": "mL/min/kg"}]}, {"smiles": "COc1cc(NC(=O)c2cnccn2)ccc1NC(=O)c1ccccc1Cl", "note": "[Compound 9h]", "values": [{"measurement": "EC50", "setting": "human mGlu4", "result": 0.0995, "unit": "µM"}]}, {"smiles": "COc1cc(NC(=O)c2nccs2)ccc1NC(=O)c1ccccc1Cl", "note": "[Compound 9e]", "values": [{"measurement": "Rat Clint", "setting": "microsomal stability", "result": "poor metabolic stability"}, {"measurement": "CLint scaled at 1 µM", "setting": "microsomal stability", "result": 185, "unit": "mL/min/kg"}, {"measurement": "GluMax (%Cmpd 1), rat mGlu4", "setting": "rat mGlu4", "result": 133.9, "unit": "%Cmpd 1"}]}, {"smiles": "O=C(Nc1ccc(NC(=O)c2ccccc2Cl)c(F)c1)c1ccccn1", "note": "[Compound 10d]", "values": [{"measurement": "CLint scaled at 1 µM", "setting": "microsomal stability", "result": 31.2, "unit": "mL/min/kg"}]}, {"smiles": "O=C(Nc1ccc(NC(=O)c2ccccc2Cl)c(Cl)c1)c1ccccn1", "note": "[Compound 10a, N-(3-chloro-4-(2-chlorobenzamido)phenyl)picolinamide]", "values": [{"measurement": "IC50", "setting": "CYP1A2", "result": "> 30", "unit": "µM"}, {"measurement": "IC50", "setting": "CYP3A4", "result": "> 30", "unit": "µM"}, {"measurement": "Rat Clint", "setting": "microsomal stability", "result": "acceptable"}, {"measurement": "CLint scaled at 1 µM", "setting": "microsomal stability", "result": 44.9, "unit": "mL/min/kg"}, {"measurement": "IC50", "setting": "CYP2D6", "result": 13.1, "unit": "µM"}, {"measurement": "IC50", "setting": "CYP2C9", "result": 11.8, "unit": "µM"}]}]}
